The record followed here is US11040959B2, “Diprovocims: a new and potent class of TLR agonists” (The Scripps Research Institute, priority 2016, dated 2021).

The term EC50 denotes the midpoint of the concentration-response curve.

Assay [1] deals with differentiated human THP-1 cells. As to the kind of experiment: stimulated release of TNF-α from differentiated human THP-1 cells (ELISA, dose-response). The class given is cell-based. The note with it: for EC50: Homo sapiens. How it is done: A screening campaign was conducted with nearly 100,000 compounds [(a) Whitby et al., Acc. Chem. Res. 2012, 45:1698-1709; and (b) Boger et al., Angew. Chem. Int. Ed. 2003, 42:4138-4176], using a newly developed functional assay that measured the stimulated release of TNF-α from treated human THP-1 cells partially differentiated along the macrophage line [unpublished results of the inventors and co-workers]. […] The libraries screened in the efforts represent a unique compound collection populated by nontraditional compounds [(a) Whitby et al., Acc. Chem. Res. 2012, 45:1698-1709; and (b) Boger et al., Angew. Chem. Int. Ed. 2003, 42:4138-4176] designed to target protein-protein [(a) Shaginian et al., J. Am. Chem. Soc. 2009, 131:5564-5572; and (b) Whitby et al., J. Am. Chem. Soc. 2011, 133:10184-10194] or protein-DNA interactions [Stover et al., J. Am. Chem. Soc. 2009, 131:3342-3348] as well as the major enzyme classes [Otrubova et al., Bioorg. Med. Chem. Lett. 2014, 24:3807-3813].
Hits were confirmed in an ELISA assay for stimulated TNF-α release from human PMA differentiated THP-1 cells and this assay was used for establishing dose-response curves and measured EC50 values.
For orientation: An ELISA detects its analyte on a solid surface through an enzyme-linked reagent.

Another assay has as its system mouse macrophages. As to the kind of experiment: stimulated release of TNF-α from mouse macrophages. Format: cell-based. The conditions noted are these: for EC50: Macrophage. An excerpt: EC50 values are derived from dose-response curves for the stimulated release of TNF-α from differentiated THP-1 cells or mouse macrophages are shown beneath each appropriate structural formula of Compounds 8-12. Half maximal effective concentration (EC50) refers to the concentration of a drug, antibody or toxicant that induces a response halfway between the baseline and maximum after a specified exposure time. It is commonly used as a measure of a drug's potency.

The mark [2] stands for this setting: THP-1, Table 3, TNF-α release from human THP-1 cells, read-out: EC50 (nM) (THP-1).
The mark [3] stands for this setting: Table 3, TNF-α release from mouse macrophages, read-out: EC50 (nM) (mouse).
[4] abbreviates: THP-1, Table 2, TNF-α release from human THP-1 cells, read-out: EC50 (nM) (THP-1).
[5] abbreviates: Table 2, TNF-α release from mouse macrophages, read-out: EC50 (nM) (mouse).
[6] abbreviates: THP-1, Table 7, TNF-α release from human THP-1 cells, read-out: EC50 (nM) (THP-1).
[7] abbreviates: Table 7, TNF-α release from mouse macrophages, read-out: EC50 (nM) (mouse).
The mark [8] stands for this setting: THP-1, Scheme 1, footnote a, read-out: EC50 TNF-α release from human THP-1 cells.
Where [9] appears, read: Mus musculus, Scheme 1, footnote b, read-out: EC50 TNF-α release from mouse macrophages.

Read-outs that look alike come from different tables or passages of the source. Some results are limits rather than exact numbers.

As to `CCCCCCNC(=O)[C@@H]1CN(C(=O)c2ccc(C(=O)N3C[C@@H](C(=O)NCCCCCC)[C@H](C(=O)NCCCCCC)C3)cc2)C[C@H]1C(=O)NCCCCCC` [Compound 145, (3S,3′S,4S,4′S)-1,1′-Terephthaloylbis(N^3,N^4-dihexylpyrrolidine-3,4-dicarboxamide)], the EC50 in assay [1] (THP-1, table of 140-146 (four lipid side chains), human THP-1 cells, read-out: EC50 (nM) (THP-1)) was more than 5000 nM; in the assay on mouse macrophages (table of 140-146 (four lipid side chains), mouse macrophages, read-out: EC50 (nM) (mouse)), more than 5000 nM.
For `O=C(N[C@H]1C[C@@H]1c1ccccc1)[C@@H]1CN(C(=O)c2cnc(C(=O)N3C[C@@H](C(=O)N[C@H]4C[C@@H]4c4ccccc4)[C@H](C(=O)N[C@H]4C[C@@H]4c4ccccc4)C3)cn2)C[C@H]1C(=O)N[C@H]1C[C@@H]1c1ccccc1` [Compound 50, (3S,3′S,4S,4′S)-1,1′-(Pyrazine-2,5-dicarbonyl)-bis(N^3,N^4-bis((1S,2R)-2-phenylcyclopropyl)-pyrrolidine-3,4-dicarboxamide)], the EC50 in assay [1] (setting [2]) was 130 nM; in the assay with mouse macrophages (setting [3]), more than 5000 nM.
For `CCCCCCCCCCNC(=O)[C@H]1CCN(C(=O)c2ccc(C(=O)N3C[C@@H](C(=O)N[C@H]4C[C@@H]4c4ccccc4)[C@H](C(=O)N[C@H]4C[C@@H]4c4ccccc4)C3)cc2)C1` [Compound 132, (3S,4S)-1-(4-((S)-3-(Decylcarbamoyl)pyrrolidine-1-carbonyl)benzoyl)—N^3,N^4-bis((1S,2R)-2-phenyl-cyclopropyl)pyrrolidine-3,4-dicarboxamide], the EC50 in assay [1] (THP-1, table of 125-132 (one lipid side chain, R and S), human THP-1 cells, read-out: EC50 (nM) (THP-1)) came out at 33 nM; in the assay with mouse macrophages (table of 125-132 (one lipid side chain, R and S), mouse macrophages, read-out: EC50 (nM) (mouse)), 1800 nM.
For the compound `CC(C)(C)OC(=O)CCOCCOCCOCCNC(=O)COc1cc(C(=O)N2C[C@@H](C(=O)N[C@H]3C[C@@H]3c3ccccc3)[C@H](C(=O)N[C@H]3C[C@@H]3c3ccccc3)C2)ccc1C(=O)N1C[C@@H](C(=O)N[C@H]2C[C@@H]2c2ccccc2)[C@H](C(=O)N[C@H]2C[C@@H]2c2ccccc2)C1` [Compound 149, tert-Butyl 1-(2,5-Bis((3S,4S)-3,4-bis(((1S,2R)-2-phenylcyclopropyl)carbamoyl)pyrrolidine-1-carbonyl)phenoxy)-2-oxo-6,9,12-trioxa-3-azapentadecan-15-oate], the EC50 in assay [1] (THP-1, table of functionalized derivatives 147-151, human THP-1 cells, read-out: EC50 (nM) (THP-1)) worked out at 20 nM; with mouse macrophages (table of functionalized derivatives 147-151, mouse macrophages, read-out: EC50 (nM) (mouse)) it was 150 nM.
In the case of `O=C(N[C@H]1C[C@@H]1c1ccccc1)[C@@H]1CN(C(=O)c2ccc(C(=O)N3CCCC3)cc2)C[C@H]1C(=O)N[C@H]1C[C@@H]1c1ccccc1` [Compound 30, (3S,4S)—N^3,N^4-Bis((S, 2R)-2-phenyl-cyclopropyl)-1-(4-(pyrrolidine-1-carbonyl)benzoyl)-pyrrolidine-3,4-dicarboxamide], the EC50 in assay [1] (THP-1, running text, read-out: EC50, stimulated release of TNF-α from differentiated human THP-1 cells) was 2000 nM. Besides, in assay [1] (human THP-1 cells), the “fold less active/potent than diprovocim-1 (3)” value was 20,000 fold. The “fold less active than 29” value with mouse macrophages (printed as in mouse macrophages) worked out at 10 fold.
Consider `C#CCOc1cc(C(=O)N2C[C@@H](C(=O)N[C@H]3C[C@@H]3c3ccccc3)[C@H](C(=O)N[C@H]3C[C@@H]3c3ccccc3)C2)ccc1C(=O)N1C[C@@H](C(=O)N[C@H]2C[C@@H]2c2ccccc2)[C@H](C(=O)N[C@H]2C[C@@H]2c2ccccc2)C1` [Compound 56, (3S,3′S,4S,4′S)-1,1′-(2-(Prop-2-yn-1-yloxy)-terephthaloyl)bis(N^3,N^4-bis((1S,2R)-2-phenylcyclo-propyl)pyrrolidine-3,4-dicarboxamide)], for which the 50% effective concentration (EC50) is 15 nM in assay [1] (setting [2]) and 750 nM in the assay with mouse macrophages (setting [3]).
Consider `O=C(N[C@H]1C[C@@H]1c1ccccc1)[C@@H]1CN(C(=O)Cc2cccc(CC(=O)N3C[C@@H](C(=O)N[C@H]4C[C@@H]4c4ccccc4)[C@H](C(=O)N[C@H]4C[C@@H]4c4ccccc4)C3)c2)C[C@H]1C(=O)N[C@H]1C[C@@H]1c1ccccc1` [Compound 46, (3S,3′S,4S,4′S)-1,1′-((1,3-Phenylene)diacetyl)-bis(N^3,N^4-bis((1S,2R)-2-phenylcyclopropyl)-pyrrolidine-3,4-dicarboxamide)], for which the 50% effective concentration (EC50) (in assay [1] (setting [4]); in the assay on mouse macrophages (setting [5])) was more than 5000 nM each time.
Take `O=C(NCCc1ccc(F)cc1)[C@@H]1CN(C(=O)C/C=C/CC(=O)N2C[C@@H](C(=O)NCCc3ccc(F)cc3)[C@H](C(=O)NCCc3ccc(F)cc3)C2)C[C@H]1C(=O)NCCc1ccc(F)cc1` [Compound 102, (3S,3′S,4S,4′S)-1,1′-((E)-Hex-3-enedioyl)bis-(N^3,N^4-bis(4-fluorophenethyl)pyrrolidine-3,4-dicarboxamide)]: the EC50 (in assay [1] (setting [6]); in the assay with mouse macrophages (setting [7])) was more than 5000 nM each time.
Regarding `O=C(N[C@H]1C[C@@H]1c1ccccc1)C1CN(C(=O)C#CC(=O)N2C[C@@H](C(=O)N[C@H]3C[C@@H]3c3ccccc3)[C@H](C(=O)N[C@H]3C[C@@H]3c3ccccc3)C2)C[C@H]1C(=O)N[C@H]1C[C@@H]1c1ccccc1` (stereo partly drawn) [Compound 35, (3S,3′S,4S,4′S)-1,1′-(But-2-ynedioyl)-bis(N^3,N^4-bis((1S,2R)-2-phenylcyclopropyl)-pyrrolidine-3,4-dicarboxamide)], the EC50 in assay [1] (THP-1, Table 1, TNF-α release from human THP-1 cells, read-out: EC50 (nM) (THP-1)) was more than 5000 nM; with mouse macrophages (Table 1, TNF-α release from mouse macrophages, read-out: EC50 (nM) (mouse)), more than 5000 nM.
In the case of `O=C(N[C@H]1C[C@@H]1c1ccccc1)[C@H]1CN(C(=O)c2ccc(C(=O)N3C[C@@H](C(=O)N[C@H]4C[C@@H]4c4ccccc4)[C@H](C(=O)N[C@H]4C[C@@H]4c4ccccc4)C3)cc2)C[C@@H]1C(=O)N[C@H]1C[C@@H]1c1ccccc1` [Compound 22, (3S,4S)-1-(4-((3R,4R)-3,4-Bis(((1S,2R)-2-phenylcyclopropyl)carbamoyl)pyrrolidine-1-carbonyl)-benzoyl)—N^3,N^4-bis((1S,2R)-2-phenylcyclopropyl)-pyrrolidine-3,4-dicarboxamide], the EC50 in assay [1] (setting [8]) was found to be 3 nM; with mouse macrophages (setting [9]), 150 nM.
`O=C(NCCc1ccc(F)cc1)[C@@H]1CN(C(=O)[C@H]2CC[C@H](C(=O)N3C[C@@H](C(=O)NCCc4ccc(F)cc4)[C@H](C(=O)NCCc4ccc(F)cc4)C3)CC2)C[C@H]1C(=O)NCCc1ccc(F)cc1` [Compound 107, (3S,3′S,4S,4′S)-1,1′-((1S,4S)-Cyclohexane-1,4-dicarbonyl)bis(N^3,N^4-bis(4-fluorophenethyl)-pyrrolidine-3,4-dicarboxamide)]: the EC50 (in assay [1] (setting [6]); with mouse macrophages (setting [7])) was more than 5000 nM throughout.
With `O=C(N[C@@H]1C[C@H]1c1ccccc1)[C@H]1CN(C(=O)c2ccc(C(=O)N3C[C@@H](C(=O)N[C@H]4C[C@@H]4c4ccccc4)[C@H](C(=O)N[C@H]4C[C@@H]4c4ccccc4)C3)cc2)C[C@@H]1C(=O)N[C@@H]1C[C@H]1c1ccccc1` [Compound 27, (3S,4S)-1-(4-((3R,4R)-3,4-Bis(((1R,2S)-2-phenyl-cyclopropyl)carbamoyl)-pyrrolidine-1-carbonyl)-benzoyl)—N^3,N^4-bis((1S,2R)-2-phenylcyclopropyl)-pyrrolidine-3,4-dicarboxamide], the EC50 in assay [1] (setting [8]) is 20 nM; in the assay on mouse macrophages (setting [9]), not below 5000 nM.
For the compound `O=C(NCCc1ccc(F)cc1)[C@@H]1CN(C(=O)[C@@H]2CCC[C@@H](C(=O)N3C[C@@H](C(=O)NCCc4ccc(F)cc4)[C@H](C(=O)NCCc4ccc(F)cc4)C3)C2)C[C@H]1C(=O)NCCc1ccc(F)cc1` [Compound 106, (3S,3′S,4S,4′S)-1,1′-((1R,3R)-Cyclohexane-1,3-dicarbonyl)bis(N^3,N^4-bis(4-fluorophenethyl)-pyrrolidine-3,4-dicarboxamide)], the concentration for a half-maximal effect (EC50) (in assay [1] (setting [6]); in the assay with mouse macrophages (setting [7])) was more than 5000 nM throughout.
Turning to `O=C(N[C@H]1C[C@@H]1c1ccccc1)[C@@H]1CN(C(=O)c2ccc(C(=O)N3C[C@@H](C(=O)N[C@H]4C[C@@H]4c4ccccc4)[C@H](C(=O)N[C@H]4C[C@@H]4c4ccccc4)C3)c3ccccc23)C[C@H]1C(=O)N[C@H]1C[C@@H]1c1ccccc1` [Compound 45, (3S,3′S,4S,4′S)-1,1′-(Naphthalene-1,4-dicarbonyl)bis(N^3,N^4-bis((1S,2R)-2-phenylcyclopropyl)-pyrrolidine-3,4-dicarboxamide)], the EC50 (in assay [1] (setting [4]); in the assay on mouse macrophages (setting [5])) was more than 5000 nM in each case.
